How the values were obtained:
Format in all cases: in vivo
[1] = test system: ducksalad (Heteranthera limosa); assay: Test B flooded paddy test, plant response rating; conditions: 250 g ai/ha; Flood; scale of 0 to 100 where 0 is no effect and 100 is complete control; 13 to 15 days
Excerpt: (§1) At time of treatment, test pots were flooded to 3 cm above the soil surface, treated by application of test compounds directly to the paddy water, and then maintained at that water depth for the duration of the test. Treated plants and controls were maintained in a greenhouse for 13 to 15 days, after which time all species were compared to controls and visually evaluated. […] A dash (-) response means no test result.

[2] = test system: rice (Oryza sativa); assay: Test B flooded paddy test, plant response rating; conditions: 250 g ai/ha; Flood; scale of 0 to 100 where 0 is no effect and 100 is complete control; 13 to 15 days
Excerpt: as §1

[3] = test system: sedge, umbrella (small-flower umbrella sedge, Cyperus difformis); assay: Test B flooded paddy test, plant response rating; conditions: 250 g ai/ha; Flood; scale of 0 to 100 where 0 is no effect and 100 is complete control; 13 to 15 days
Excerpt: as §1

[4] = test system: barnyardgrass (Echinochloa crus-galli); assay: Test B flooded paddy test, plant response rating; conditions: 250 g ai/ha; Flood; scale of 0 to 100 where 0 is no effect and 100 is complete control; 13 to 15 days
Excerpt: as §1

[5] = test system: pigweed (Amaranthus retroflexus); assay: Test A preemergence, visual injury rating; conditions: for Plant response rating, Pigweed: 31 g ai/ha, 0 to 100 scale, 0 no effect, 100 complete control; for Pigweed plant response rating: 125 g ai/ha, 0 to 100 scale (0 no effect, 100 complete control)
In short: (§2)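 Scoring: eye-based comparison with untreated controls, 0 for no effect through 100 for complete control, at about day 10. Treatments: directed soil spray preemergence; foliar spray postemergence on 2–10 cm plants at the one- to two-leaf stage. Medium: loam soil with sand.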

[6] = test system: ragweed (common ragweed, Ambrosia elatior); assay: Test A preemergence, visual injury rating; conditions: for Plant response rating, Ragweed: 31 g ai/ha, 0 to 100 scale, 0 no effect, 100 complete control; for Ragweed plant response rating: 125 g ai/ha, 0 to 100 scale (0 no effect, 100 complete control)
In short: as §2

[7] = test system: giant foxtail (Setaria faberii); assay: Test A preemergence, visual injury rating; conditions: for Plant response rating, Foxtail, Giant: 31 g ai/ha, 0 to 100 scale, 0 no effect, 100 complete control; for Foxtail, Giant plant response rating: 125 g ai/ha, 0 to 100 scale (0 no effect, 100 complete control)
In short: as §2

[8] = test system: Italian ryegrass (Lolium multiflorum); assay: Test A preemergence, visual injury rating; conditions: for Plant response rating, Ryegrass, Italian: 31 g ai/ha, 0 to 100 scale, 0 no effect, 100 complete control; for Ryegrass, Italian plant response rating: 125 g ai/ha, 0 to 100 scale (0 no effect, 100 complete control)
In short: as §2

[9] = test system: barnyardgrass (Echinochloa crus-galli); assay: Test A preemergence, visual injury rating; conditions: for Plant response rating, Barnyardgrass: 31 g ai/ha, 0 to 100 scale, 0 no effect, 100 complete control; for Barnyardgrass plant response rating: 125 g ai/ha, 0 to 100 scale (0 no effect, 100 complete control)
In short: as §2

[10] = test system: kochia (Kochia scoparia); assay: Test A preemergence, visual injury rating; conditions: for Plant response rating, Kochia: 31 g ai/ha, 0 to 100 scale, 0 no effect, 100 complete control; for Kochia plant response rating: 125 g ai/ha, 0 to 100 scale (0 no effect, 100 complete control)
In short: as §2

[11] = test system: galium (catchweed bedstraw, Galium aparine); assay: Test A postemergence, visual injury rating; conditions: 0 is no effect, 100 is complete control; for Galium plant response rating: 31 g ai/ha, 0 to 100 scale, approximately 10 days; for Galium plant response rating (0 to 100 scale): 125 g ai/ha
Excerpt: (§3) Seeds of plant species selected from barnyardgrass (Echinochloa crus-galli), kochia (Kochia scoparia), ragweed (common ragweed, Ambrosia elatior), Italian ryegrass (Lolium multiflorum), large (Lg) crabgrass (Digitaria sanguinalis), giant foxtail (Setaria faberii), morningglory (Ipomoea spp.), pigweed (Amaranthus retroflexus), velvetleaf (Abutilon theophrasti), wheat (Triticum aestivum), and corn (Zea mays) were planted into a blend of loam soil and sand and treated preemergence with a directed soil spray using test chemicals formulated in a non-phytotoxic solvent mixture which included a surfactant.
(§4) At the same time, plants selected from these crop and weed species and also blackgrass (Alopecurus myosuroides), and galium (catchweed bedstraw, Galium aparine) were planted in pots containing the same blend of loam soil and sand and treated with postemergence applications of test chemicals formulated in the same manner. Plants ranged in height from 2 to 10 cm and were in the one- to two-leaf stage for the postemergence treatment. Treated plants and untreated controls were maintained in a greenhouse for approximately 10 days, after which time all treated plants were compared to untreated controls and visually evaluated for injury. Plant response ratings, summarized in Table A, are based on a 0 to 100 scale where 0 is no effect and 100 is complete control. A dash (-) response means no test result.

[12] = test system: pigweed (Amaranthus retroflexus); assay: Test A postemergence, visual injury rating; conditions: 0 is no effect, 100 is complete control; for Pigweed plant response rating: 31 g ai/ha, 0 to 100 scale, approximately 10 days; for Pigweed plant response rating (0 to 100 scale): 125 g ai/ha
Excerpt: as §3, §4

[13] = test system: corn (Zea mays); assay: Test A postemergence, visual injury rating; conditions: 0 is no effect, 100 is complete control; for Corn plant response rating: 31 g ai/ha, 0 to 100 scale, approximately 10 days; for Corn plant response rating (0 to 100 scale): 125 g ai/ha
Excerpt: as §3, §4

[14] = test system: ragweed (common ragweed, Ambrosia elatior); assay: Test A postemergence, visual injury rating; conditions: 0 is no effect, 100 is complete control; for Ragweed plant response rating: 31 g ai/ha, 0 to 100 scale, approximately 10 days; for Ragweed plant response rating (0 to 100 scale): 125 g ai/ha
Excerpt: as §3, §4

[15] = test system: giant foxtail (Setaria faberii); assay: Test A postemergence, visual injury rating; conditions: 0 is no effect, 100 is complete control; for Foxtail, Giant plant response rating: 31 g ai/ha, 0 to 100 scale, approximately 10 days; for Foxtail, Giant plant response rating (0 to 100 scale): 125 g ai/ha
Excerpt: as §3, §4

[16] = test system: blackgrass (Alopecurus myosuroides); assay: Test A postemergence, visual injury rating; conditions: 0 is no effect, 100 is complete control; for Blackgrass plant response rating: 31 g ai/ha, 0 to 100 scale, approximately 10 days; for Blackgrass plant response rating (0 to 100 scale): 125 g ai/ha
Excerpt: as §3, §4

[17] = test system: Italian ryegrass (Lolium multiflorum); assay: Test A postemergence, visual injury rating; conditions: 0 is no effect, 100 is complete control; for Ryegrass, Italian plant response rating: 31 g ai/ha, 0 to 100 scale, approximately 10 days; for Ryegrass, Italian plant response rating (0 to 100 scale): 125 g ai/ha
Excerpt: as §3, §4

[18] = test system: barnyardgrass (Echinochloa crus-galli); assay: Test A postemergence, visual injury rating; conditions: 0 is no effect, 100 is complete control; for Barnyardgrass plant response rating: 31 g ai/ha, 0 to 100 scale, approximately 10 days; for Barnyardgrass plant response rating (0 to 100 scale): 125 g ai/ha
Excerpt: as §3, §4

[19] = test system: wheat (Triticum aestivum); assay: Test A postemergence, visual injury rating; conditions: 0 is no effect, 100 is complete control; for Wheat plant response rating: 31 g ai/ha, 0 to 100 scale, approximately 10 days; for Wheat plant response rating (0 to 100 scale): 125 g ai/ha
Excerpt: as §3, §4

[20] = test system: kochia (Kochia scoparia); assay: Test A postemergence, visual injury rating; conditions: 0 is no effect, 100 is complete control; for Kochia plant response rating: 31 g ai/ha, 0 to 100 scale, approximately 10 days; for Kochia plant response rating (0 to 100 scale): 125 g ai/ha
Excerpt: as §3, §4

Compound	Plant response rating, Ducksalad [1]	Plant response rating, Rice [2]	Plant response rating, Sedge, Umbrella [3]	Plant response rating, Barnyardgrass [4]	Plant response rating, Pigweed [5]	Pigweed plant response rating [5]	Plant response rating, Ragweed [6]	Ragweed plant response rating [6]	Plant response rating, Foxtail, Giant [7]	Foxtail, Giant plant response rating [7]	Plant response rating, Ryegrass, Italian [8]	Ryegrass, Italian plant response rating [8]	Plant response rating, Barnyardgrass [9]	Barnyardgrass plant response rating [9]	Plant response rating, Kochia [10]	Kochia plant response rating [10]	Galium plant response rating [11]	Galium plant response rating (0 to 100 scale) [11]	Pigweed plant response rating [12]	Pigweed plant response rating (0 to 100 scale) [12]	also measured
C=C(C)COC(=O)c1c(Br)cccc1Oc1ncc(Cl)cn1 [Compound 3]	30	0	100	0	50	100	0	0	70	100	0	30	60	80	0	40	40	70	70	100	Corn plant response rating [13]: 0; Corn plant response rating (0 to 100 scale) [13]: 30; Ragweed plant response rating [14]: 0; Ragweed plant response rating (0 to 100 scale) [14]: 0; Foxtail, Giant plant response rating [15]: 30; Foxtail, Giant plant response rating (0 to 100 scale) [15]: 80; Blackgrass plant response rating [16]: 0; Blackgrass plant response rating (0 to 100 scale) [16]: 30; Ryegrass, Italian plant response rating [17]: 0; Ryegrass, Italian plant response rating (0 to 100 scale) [17]: 30; Barnyardgrass plant response rating [18]: 20; Barnyardgrass plant response rating (0 to 100 scale) [18]: 60; Wheat plant response rating [19]: 0; Wheat plant response rating (0 to 100 scale) [19]: 0; Kochia plant response rating [20]: 0; Kochia plant response rating (0 to 100 scale) [20]: 40
O=C(OCC(F)(F)C(F)(F)F)c1c(F)cccc1Oc1ncc(Br)cn1 [Compound 4]	0	0	0	0	0	0	0	0	0	0	0	0	0	0	0	0	0	0	0	0	Corn plant response rating [13]: 0; Corn plant response rating (0 to 100 scale) [13]: 0; Ragweed plant response rating [14]: 0; Ragweed plant response rating (0 to 100 scale) [14]: 0; Foxtail, Giant plant response rating [15]: 0; Foxtail, Giant plant response rating (0 to 100 scale) [15]: 0; Blackgrass plant response rating [16]: 0; Blackgrass plant response rating (0 to 100 scale) [16]: 0; Ryegrass, Italian plant response rating [17]: 0; Ryegrass, Italian plant response rating (0 to 100 scale) [17]: 0; Barnyardgrass plant response rating [18]: 0; Barnyardgrass plant response rating (0 to 100 scale) [18]: 0; Wheat plant response rating [19]: 0; Wheat plant response rating (0 to 100 scale) [19]: 0; Kochia plant response rating [20]: 0; Kochia plant response rating (0 to 100 scale) [20]: 0
O=C(OCC(F)(F)C(F)(F)F)c1c(F)cccc1Oc1ncc(Cl)cn1 [Compound 5]	0	0	0	0	0	0	0	0	0	0	0	0	0	0	0	0	0	0	0	0	Corn plant response rating [13]: 0; Corn plant response rating (0 to 100 scale) [13]: 0; Ragweed plant response rating [14]: 0; Ragweed plant response rating (0 to 100 scale) [14]: 0; Foxtail, Giant plant response rating [15]: 0; Foxtail, Giant plant response rating (0 to 100 scale) [15]: 0; Blackgrass plant response rating [16]: 0; Blackgrass plant response rating (0 to 100 scale) [16]: 0; Ryegrass, Italian plant response rating [17]: 0; Ryegrass, Italian plant response rating (0 to 100 scale) [17]: 0; Barnyardgrass plant response rating [18]: 0; Barnyardgrass plant response rating (0 to 100 scale) [18]: 0; Wheat plant response rating [19]: 0; Wheat plant response rating (0 to 100 scale) [19]: 0; Kochia plant response rating [20]: 0; Kochia plant response rating (0 to 100 scale) [20]: 0

Source: patent US11053204B2, “Pyrimidinyloxy benzene derivatives as herbicides” (FMC Corporation, priority 2015, dated 2021)
